From ChEMBL document CHEMBL1201862, “PubChem BioAssay data set” (2004)
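These data come from cells grown in 96-well plates and exposed to compound for 48 hours at five concentrations. The concentration for 50% growth inhibition is given as GI50.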 Active and inactive are the calls of the source. Cut-off read from the data, not from the text of the source: active = GI50 up to about 1.1 µM and inactive = higher.

Columns and labels:
Assay in all cases: growth of human tumour cells (NCI), 48 h
M19-MEL = test system: M19-MEL
UACC-62 = test system: UACC-62
SR = test system: SR
COLO 205 = test system: COLO 205
UO-31 = test system: UO-31
NCI-H226 = test system: NCI-H226
M14 = test system: M14
Malme-3M = test system: Malme-3M
LXFL 529 = test system: LXFL 529
HOP-18 = test system: HOP-18
NCI-H522 = test system: NCI-H522
TK-10 = test system: TK-10
SK-MEL-5 = test system: SK-MEL-5
SNB-78 = test system: SNB-78
SNB-19 = test system: SNB-19
KM-20L2 = test system: KM-20L2
HCT-116 = test system: HCT-116
K562 = test system: K562
DMS-114 = test system: DMS-114
HL-60 = test system: HL-60
DLD-1 = test system: DLD-1
CCRF-CEM = test system: CCRF-CEM
RPMI-8226 = test system: RPMI-8226
DMS-273 = test system: DMS-273
SK-OV-3 = test system: SK-OV-3
IGROV-1 = test system: IGROV-1
A498 = test system: A498
ACHN = test system: ACHN
HCT-15 = test system: HCT-15
LOX IMVI = test system: LOX IMVI
CAKI-1 = test system: CAKI-1
OVCAR-8 = test system: OVCAR-8
HOP-92 = test system: HOP-92
OVCAR-5 = test system: OVCAR-5
SK-MEL-28 = test system: SK-MEL-28
KM12 = test system: KM12
MOLT-4 = test system: MOLT-4
EKVX = test system: EKVX
U-251 = test system: U-251
SN12C = test system: SN12C
UACC-257 = test system: UACC-257
SNB-75 = test system: SNB-75
NCI-H460 = test system: NCI-H460
SW-620 = test system: SW-620
SK-MEL-2 = test system: SK-MEL-2
A549 = test system: A549
786-0 = test system: 786-0
SF-295 = test system: SF-295
HOP-62 = test system: HOP-62
HT-29 = test system: HT-29
NCI-H23 = test system: NCI-H23
SF-268 = test system: SF-268
RXF 393 = test system: RXF 393
SF-539 = test system: SF-539
OVCAR-4 = test system: OVCAR-4
HCC 2998 = test system: HCC 2998

Question: How did the GI50 (M19-MEL) turn out when NC(CCC(=O)NC(CSC(=O)N(O)c1ccc(Br)cc1)C(=O)NCC(=O)O)C(=O)O (configuration not stated) was run?
Answer: > 100 µM (inactive)

Question: And the GI50 (UACC-62)?
Answer: > 100 µM (inactive)

Question: What about the GI50 (SR) of the same compound?
Answer: 81.7 µM (inactive)

Question: What about the GI50 (COLO 205) of the same compound?
Answer: > 100 µM (inactive)

Question: And the GI50 (UO-31)?
Answer: 90.4 µM (inactive)

Question: And the GI50 (NCI-H226)?
Answer: > 100 µM (inactive)

Question: And the GI50 (M14)?
Answer: 30 µM (inactive)

Question: And the GI50 (Malme-3M)?
Answer: > 100 µM (inactive)

Question: And the GI50 (LXFL 529)?
Answer: 46.9 µM (inactive)

Question: And the GI50 (HOP-18)?
Answer: 38.2 µM (inactive)

Question: And the GI50 (NCI-H522)?
Answer: > 100 µM (inactive)

Question: What about the GI50 (TK-10) of the same compound?
Answer: > 100 µM (inactive)

Question: And the GI50 (SK-MEL-5)?
Answer: > 100 µM (inactive)

Question: And the GI50 (SNB-78)?
Answer: > 100 µM (inactive)

Question: And the GI50 (SNB-19)?
Answer: > 100 µM (inactive)

Question: And the GI50 (KM-20L2)?
Answer: 35.2 µM (inactive)

Question: And the GI50 (HCT-116)?
Answer: 88.5 µM (inactive)

Question: And the GI50 (K562)?
Answer: 76.2 µM (inactive)

Question: What about the GI50 (DMS-114) of the same compound?
Answer: > 100 µM (inactive)

Question: What about the GI50 (HL-60) of the same compound?
Answer: > 100 µM (inactive)

Question: What about the GI50 (DLD-1) of the same compound?
Answer: 86.5 µM (inactive)

Question: And the GI50 (CCRF-CEM)?
Answer: > 100 µM (inactive)

Question: And the GI50 (RPMI-8226)?
Answer: 66.4 µM (inactive)

Question: And the GI50 (DMS-273)?
Answer: > 100 µM (inactive)

Question: What about the GI50 (SK-OV-3) of the same compound?
Answer: 29.2 µM (inactive)

Question: And the GI50 (IGROV-1)?
Answer: > 100 µM (inactive)

Question: What about the GI50 (A498) of the same compound?
Answer: > 100 µM (inactive)

Question: What about the GI50 (ACHN) of the same compound?
Answer: 25.1 µM (inactive)

Question: What about the GI50 (HCT-15) of the same compound?
Answer: 77.6 µM

Question: What about the GI50 (LOX IMVI) of the same compound?
Answer: 61.5 µM (inactive)

Question: And the GI50 (CAKI-1)?
Answer: 70.3 µM (inactive)

Question: What about the GI50 (OVCAR-8) of the same compound?
Answer: > 100 µM (inactive)

Question: Which GI50 (HOP-92) does the source give for CC(C)N(C(C)C)P(OCCC#N)OC1CC(n2cnc3c(=O)[nH]cnc32)OC1COC(=O)NCCCCCCNC(=O)OC(C)(C)c1ccc(-c2ccccc2)cc1 (configuration not stated) here?
Answer: 35.9 µM (inactive)

Question: And the GI50 (M19-MEL)?
Answer: 21.5 µM (inactive)

Question: What about the GI50 (UACC-62) of the same compound?
Answer: 18.4 µM (inactive)

Question: What about the GI50 (COLO 205) of the same compound?
Answer: 17.4 µM (inactive)

Question: And the GI50 (OVCAR-5)?
Answer: > 100 µM (inactive)

Question: What about the GI50 (UO-31) of the same compound?
Answer: 17.5 µM (inactive)

Question: What about the GI50 (NCI-H226) of the same compound?
Answer: 23.9 µM (inactive)

Question: What about the GI50 (M14) of the same compound?
Answer: 18.4 µM (inactive)

Question: What about the GI50 (Malme-3M) of the same compound?
Answer: 32.2 µM (inactive)

Question: And the GI50 (SK-MEL-28)?
Answer: 34.3 µM (inactive)

Question: And the GI50 (KM12)?
Answer: 18.7 µM (inactive)

Question: What about the GI50 (LXFL 529) of the same compound?
Answer: 17.5 µM (inactive)

Question: What about the GI50 (MOLT-4) of the same compound?
Answer: 18.7 µM (inactive)

Question: And the GI50 (HOP-18)?
Answer: 92 µM (inactive)

Question: What about the GI50 (EKVX) of the same compound?
Answer: > 100 µM (inactive)

Question: And the GI50 (NCI-H522)?
Answer: 15.6 µM (inactive)

Question: And the GI50 (TK-10)?
Answer: 24.2 µM (inactive)

Question: And the GI50 (U-251)?
Answer: 21.7 µM (inactive)

Question: And the GI50 (SK-MEL-5)?
Answer: 24.8 µM (inactive)

Question: And the GI50 (SNB-78)?
Answer: 30.5 µM (inactive)

Question: What about the GI50 (SN12C) of the same compound?
Answer: 23.7 µM (inactive)

Question: What about the GI50 (SNB-19) of the same compound?
Answer: 21.7 µM (inactive)

Question: What about the GI50 (UACC-257) of the same compound?
Answer: 15.2 µM (inactive)

Question: What about the GI50 (KM-20L2) of the same compound?
Answer: 43.2 µM (inactive)

Question: And the GI50 (SNB-75)?
Answer: 24.3 µM (inactive)

Question: What about the GI50 (HCT-116) of the same compound?
Answer: 39.1 µM (inactive)

Question: What about the GI50 (K562) of the same compound?
Answer: 13.7 µM (inactive)

Question: And the GI50 (DMS-114)?
Answer: 21.8 µM (inactive)

Question: And the GI50 (NCI-H460)?
Answer: 22.9 µM (inactive)

Question: What about the GI50 (HL-60) of the same compound?
Answer: 14.7 µM (inactive)

Question: And the GI50 (SW-620)?
Answer: 34.1 µM (inactive)

Question: And the GI50 (DLD-1)?
Answer: 43.3 µM (inactive)

Question: What about the GI50 (SK-MEL-2) of the same compound?
Answer: 30.4 µM (inactive)

Question: And the GI50 (CCRF-CEM)?
Answer: 18.5 µM (inactive)

Question: What about the GI50 (A549) of the same compound?
Answer: 39.4 µM (inactive)

Question: What about the GI50 (786-0) of the same compound?
Answer: 23 µM (inactive)

Question: And the GI50 (SF-295)?
Answer: 52.1 µM (inactive)

Question: What about the GI50 (RPMI-8226) of the same compound?
Answer: 25.7 µM (inactive)

Question: What about the GI50 (DMS-273) of the same compound?
Answer: 17.4 µM (inactive)

Question: What about the GI50 (HOP-62) of the same compound?
Answer: 23.4 µM (inactive)

Question: And the GI50 (SK-OV-3)?
Answer: 39.4 µM (inactive)

Question: What about the GI50 (HT-29) of the same compound?
Answer: 43.2 µM (inactive)

Question: And the GI50 (NCI-H23)?
Answer: 26.1 µM (inactive)

Question: What about the GI50 (SF-268) of the same compound?
Answer: 29.6 µM (inactive)

Question: And the GI50 (RXF 393)?
Answer: 27.7 µM (inactive)

Question: And the GI50 (IGROV-1)?
Answer: 17 µM (inactive)

Question: And the GI50 (A498)?
Answer: > 100 µM (inactive)

Question: And the GI50 (SF-539)?
Answer: 24 µM (inactive)

Question: And the GI50 (OVCAR-4)?
Answer: 19.7 µM (inactive)

Question: What about the GI50 (ACHN) of the same compound?
Answer: 38.7 µM (inactive)

Question: What about the GI50 (HCC 2998) of the same compound?
Answer: 25.5 µM (inactive)

Question: And the GI50 (HCT-15)?
Answer: 22.6 µM

Question: And the GI50 (LOX IMVI)?
Answer: 18.2 µM (inactive)

Question: And the GI50 (CAKI-1)?
Answer: 39.4 µM (inactive)

Question: What about the GI50 (OVCAR-8) of the same compound?
Answer: 34.4 µM (inactive)
